Entries after “also recorded” stand apart in the source; their conditions may differ.
Legend:
AlinCSP1 [1] = biological target: T1, AlinCSP1 (Adelphocoris lineolatus, UniProt J7EJ71); assay: Binding of fluorescent probe 1-NPN to AlinCSP1 (titration, Scatchard plot); conditions: 2 µM protein, 1-NPN 2-16 µM, read-out: dissociation constant of the AlinCSP1/1-NPN complex
Experimental: (§1) Fluorescence binding assays were performed on an F-380 fluorescence spectrophotometer (Tianjin, China) in a 1 cm light path quartz cuvette. The slit width used for excitation and emission was both 10 nm. The fluorescent probe N-phenyl-1-naphthylamine (1-NPN) was dissolved in methanol with a 1 mM stock solution. 1-NPN was excited at 337 nm and emission spectra were recorded between 390 nm and 530 nm.
(§2) All values reported were obtained from three independent measurements.
(§3) For determining binding constants, the intensity values corresponding to the maximum fluorescence emission were plotted against free ligand concentration. Bound ligand was evaluated from the values of fluorescence intensity assuming the protein was 100% active, with a stoichiometry of 1∶1 protein:ligand at saturation. The curves were linearized using Scatchard Plot. Dissociation constants of the competitors were calculated from the corresponding IC50 values, using the equation: KD = [IC50]/(1+[1-NPN]/K1-NPN), where [1-NPN] is the free concentration of 1-NPN and K1-NPN is the dissociation constant of the AlinCSP1-3/1-NPN complex.

AlinCSP2 [2] = biological target: T2, AlinCSP2 (Adelphocoris lineolatus, UniProt E7BLG5); assay: Binding of fluorescent probe 1-NPN to AlinCSP2 (titration, Scatchard plot); conditions: 2 µM protein, 1-NPN 2-16 µM, read-out: dissociation constant of the AlinCSP2/1-NPN complex
Experimental: as §1, §2, §3

AlinCSP3 [3] = biological target: T3, AlinCSP3 (Adelphocoris lineolatus, UniProt E7BLG4); assay: Binding of fluorescent probe 1-NPN to AlinCSP3 (titration, Scatchard plot); conditions: 2 µM protein, 1-NPN 2-16 µM, read-out: dissociation constant of the AlinCSP3/1-NPN complex
Experimental: as §1, §2, §3

AlinCSP1 [4] = biological target: T1, AlinCSP1; assay: biochemical; format: binding; conditions: for Ki: Figure 7B legend
Experimental: as §1, §2
(§4) For determining binding constants, the intensity values corresponding to the maximum fluorescence emission were plotted against free ligand concentration. Bound ligand was evaluated from the values of fluorescence intensity assuming the protein was 100% active, with a stoichiometry of 1∶1 protein:ligand at saturation. The curves were linearized using Scatchard Plot.

AlinCSP2 [5] = biological target: T2, AlinCSP2; assay: biochemical; format: binding; conditions: for Ki: Figure 7B legend
Experimental: as §1, §2, §4

AlinCSP3 [6] = biological target: T3, AlinCSP3; assay: biochemical; format: binding; conditions: for Ki: Figure 7B legend
Experimental: as §1, §2, §4

A. lineolatus antennae = assay: Electroantennogram (EAG) recordings; set-up: species or system Adelphocoris lineolatus; conditions: normalized to 2-octanone; for EAG response, male versus female antennae: Student t-test between sexes; for EAG response in words: male and female adult antennae, 10% (v/v) in paraffin oil, good ligand = more than 50% of 2-octanone response
From the text: Electrophysiological (EAG) recordings from each sex of adult individuals were made using Ag-AgCl glass pipette electrodes filled with 3 M KCl solution [69], [70]. The insects were anaesthetized by chilling, the antenna was amputated at the base and the tip of the antenna was cut off. The excised antenna was mounted between the electrodes by one teardrop of Spectra R360 electrically conductive gel (Syntech, Netherlands). The base of the antenna was connected to the reference electrode, while the terminal of tip-cut off antenna was connected to the recording electrode. An air stimulus controller CS-55 (Syntech, Netherlands) was used for air and chemical stimulants delivery with a constant flow of 10 ml/second flowed continuously over the antenna through the open end of the glass tube, which was positioned 1 cm from the antenna.
Twenty microliters of tested chemicals (100 µl/ml, 10% (v/v) dilution in paraffin oil except the hexadecanoic acid dissolved in hexane with 100 µg/ml) were applied to filter paper strips (1.5 cm×4 cm, Whatman No.1), and the solvent was allowed to evaporate for 30 sec before the paper strip was inserted into the glass Pasteur pipette cartridge (10 cm long, Fisher Scientific, Pittsburgh, Pennsylvania, USA). The chemicals were tested randomly, stimulus duration time was 0.5 second and an interval of at least 30 seconds was taken between stimulations for antennal recovery. Chemical odorants used for the EAG recordings are the same as used in the binding assays. […] The paraffin oil (Fluka, Buchs, Switzerland) was used to dissolve the chemicals and treated as control compound [71]. Each chemical was tested against six individual male and female antennae, and each antenna was tested three times. The signals were passed through a high impedance amplifier (CS-05 model, Syntech, the Netherlands), EAG responses were initially measured in millivolts (peak height of depolarization) and then converted to normalized responses by the Syntech EAG 2000 program (Syntech, the Netherlands). Response to the solvent control was subtracted from all normalized response and the normalized EAG responses were expressed as a percentage to the reference compound response. All results are presented as mean (±SE) normalized EAG responses. EAG responses between male and female individuals were compared with the Student t-test using SAS software.

AlinCSP1-3 = assay: Fluorescence competitive binding assay, statements for the three CSPs together; set-up: species or system Adelphocoris lineolatus
Experimental: as §1, §2, §3

[7] = 1-NPN and protein at 2 µM, 50 mM Tris-HCl pH 7.4, KD calculated from IC50, mean of three measurements, read-out: KD (µM) AlinCSP1
[8] = u.d. = KD not calculated because IC50>50 µM, read-out: KD (µM) AlinCSP2, given as u.d.
[9] = 1-NPN and protein at 2 µM, 50 mM Tris-HCl pH 7.4, KD calculated from IC50, mean of three measurements, read-out: KD (µM) AlinCSP3
[10] = KD (µM) AlinCSP1, 1-NPN and protein at 2 µM, 50 mM Tris-HCl pH 7.4, KD calculated from IC50, mean of three measurements
[11] = KD (µM) AlinCSP2, 1-NPN and protein at 2 µM, 50 mM Tris-HCl pH 7.4, KD calculated from IC50, mean of three measurements
[12] = KD (µM) AlinCSP3, 1-NPN and protein at 2 µM, 50 mM Tris-HCl pH 7.4, KD calculated from IC50, mean of three measurements
[13] = u.d. = KD not calculated because IC50>50 µM, read-out: KD (µM) AlinCSP1, given as u.d.
[14] = u.d. = KD not calculated because IC50>50 µM, read-out: KD (µM) AlinCSP3, given as u.d.
[15] = 1-NPN and protein at 2 µM, 50 mM Tris-HCl pH 7.4, KD calculated from IC50, mean of three measurements, read-out: KD (µM) AlinCSP2

T3 sequence (E7BLG4 entry or part of it): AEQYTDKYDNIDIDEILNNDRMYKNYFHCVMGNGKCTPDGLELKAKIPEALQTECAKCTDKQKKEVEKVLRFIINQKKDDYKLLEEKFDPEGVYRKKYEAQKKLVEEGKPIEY
T2 sequence (E7BLG5 entry or part of it): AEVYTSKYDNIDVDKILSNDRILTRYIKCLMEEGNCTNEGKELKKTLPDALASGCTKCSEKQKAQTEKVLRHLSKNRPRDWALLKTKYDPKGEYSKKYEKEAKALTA
T1 sequence (J7EJ71 entry or part of it): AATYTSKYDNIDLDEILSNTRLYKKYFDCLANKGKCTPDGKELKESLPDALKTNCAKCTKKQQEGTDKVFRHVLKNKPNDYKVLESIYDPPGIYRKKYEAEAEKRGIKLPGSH

c1ccc(Nc2cccc3ccccc23)cc1 [1-NPN, N-phenyl-1-naphthylamine]
Kd (AlinCSP1 [1]): 1.83 µM
Kd (AlinCSP2 [2]): 1.92 µM
Kd (AlinCSP3 [3]): 4.45 µM

CCCCCC(C)=O [2-Heptanone]
Kd (AlinCSP1 [4]; [7]): 42.9 ± 2.89 µM
Kd (AlinCSP2 [5]; [8]): > 50 µM
Kd (AlinCSP3 [6]; [9]): 41.2 ± 2.56 µM
EAG response, male versus female antennae (A. lineolatus antennae): significantly higher EAG responses from female antennae than from male antennae

CCCCC(C)O (centres unmarked) [2-Hexanol]
Kd (AlinCSP1 [4]; [7]): 45.4 ± 2.43 µM
Kd (AlinCSP2 [5]; [8]): > 50 µM
Kd (AlinCSP3 [6]; [9]): 37.1 ± 1.01 µM
EAG response, male versus female antennae (A. lineolatus antennae): significantly higher EAG responses from female antennae than from male antennae

CCCCC(C)=O [2-Hexanone]
Kd (AlinCSP1 [4]; [10]): 19.5 ± 1.73 µM
Kd (AlinCSP2 [5]; [11]): 20.4 ± 1.82 µM
Kd (AlinCSP3 [6]; [12]): 22.5 ± 1.88 µM
EAG response, male versus female antennae (A. lineolatus antennae): significantly higher EAG responses from male antennae than from female antennae

Cc1ccc(C=O)cc1C [3,4-Dimethyl-benzaldehe, 3,4-Dimethyl-benzaldehyde]
Kd (AlinCSP1 [4]; [13]): > 50 µM
Kd (AlinCSP2 [5]; [8]): > 50 µM
Kd (AlinCSP3 [6]; [14]): > 50 µM
EAG response, male versus female antennae (A. lineolatus antennae): significantly higher EAG responses from female antennae than from male antennae

CCC/C=C/C=O [(E)-2-Hexen-1-al]
Kd (AlinCSP1 [4]; [10]): 11.3 ± 1.07 µM
Kd (AlinCSP2 [5]; [11]): 13.2 ± 2.05 µM
Kd (AlinCSP3 [6]; [12]): 14.5 ± 2.59 µM
EAG response in words (A. lineolatus antennae): elicited significant antennal responses from both male and female

CCC/C=C/COC(=O)CCC [(E)-2-Hexenyl butyrate]
Kd (AlinCSP1 [4]; [13]): > 50 µM
Ki (AlinCSP2 [5]): 113 µM
Kd (AlinCSP2 [5]; [8]): > 50 µM
Ki (AlinCSP3 [6]): 148 µM
Kd (AlinCSP3 [6]; [14]): > 50 µM
binding to the three CSPs in words (AlinCSP1-3): failed to bind with any of the three CSPs
EAG response in words (A. lineolatus antennae): elicited significant antennal responses from both male and female; also recorded: elicited high EAG responses

CC/C=C\CCO [(Z)-3-Hexen-1-ol]
Kd (AlinCSP1 [4]; [10]): 12.5 ± 2.32 µM
Kd (AlinCSP2 [5]; [11]): 15.1 ± 1.79 µM
Kd (AlinCSP3 [6]; [12]): 16.3 ± 1.98 µM
EAG response in words (A. lineolatus antennae): elicited significant antennal responses from both male and female

CC/C=C\CCOC(C)=O [(Z)-3-Hexenyl acetate]
Kd (AlinCSP1 [4]; [7]): 7.37 ± 2.49 µM
Kd (AlinCSP2 [5]; [15]): 15.8 ± 1.68 µM
Kd (AlinCSP3 [6]; [9]): 12.2 ± 1.82 µM
EAG response, male versus female antennae (A. lineolatus antennae): significantly higher EAG responses from female antennae than from male antennae
EAG response in words (A. lineolatus antennae): only elicited a high EAG response in the female

CCCC(=O)OCC [Ethyl butyrate]
Ki (AlinCSP1 [4]): 95.2 µM
Kd (AlinCSP1 [4]; [13]): > 50 µM
Ki (AlinCSP2 [5]): 92.5 µM
Kd (AlinCSP2 [5]; [8]): > 50 µM
Ki (AlinCSP3 [6]): 101 µM
Kd (AlinCSP3 [6]; [14]): > 50 µM
binding to the three CSPs in words (AlinCSP1-3): failed to bind with any of the three CSPs
EAG response in words (A. lineolatus antennae): elicited significant antennal responses from both male and female; also recorded: elicited high EAG responses

COC(=O)c1ccccc1O [Methyl salicylate]
Kd (AlinCSP1 [4]; [10]): 8.67 ± 1.92 µM
Kd (AlinCSP2 [5]; [11]): 13.3 ± 1.71 µM
Kd (AlinCSP3 [6]; [12]): 11.8 ± 1.89 µM
EAG response in words (A. lineolatus antennae): failed to elicit high EAG response

C=CC(=C)CCC=C(C)C [Myrcene]
Kd (AlinCSP1 [4]; [7]): 5.42 ± 0.93 µM
Kd (AlinCSP2 [5]; [15]): 13 ± 1.72 µM
Kd (AlinCSP3 [6]; [9]): 10.7 ± 1.64 µM
EAG response in words (A. lineolatus antennae): failed to elicit high EAG response

CCCCCCCC [Octane]
Kd (AlinCSP1 [4]; [7]): 42.1 ± 1.42 µM
Kd (AlinCSP2 [5]; [15]): 44.4 ± 1.36 µM
Kd (AlinCSP3 [6]; [9]): 45.4 ± 1.54 µM
EAG response, male versus female antennae (A. lineolatus antennae): significantly higher EAG responses from male antennae than from female antennae

CCCCCCCCCCC [Undecane]
Kd (AlinCSP1 [4]; [7]): 38.4 ± 1.54 µM
Kd (AlinCSP2 [5]; [15]): 39.6 ± 2.36 µM
Kd (AlinCSP3 [6]; [14]): > 50 µM
EAG response, male versus female antennae (A. lineolatus antennae): significantly higher EAG responses from male antennae than from female antennae

CCCCC=O [Valeraldehyde]
Kd (AlinCSP1 [4]; [7]): 17.6 ± 2.54 µM
Kd (AlinCSP2 [5]; [15]): 13.4 ± 2.41 µM
Kd (AlinCSP3 [6]; [9]): 11.2 ± 1.52 µM
EAG response in words (A. lineolatus antennae): elicited significant antennal responses from both male and female

CCCCCCCCCC [decane]
Kd (AlinCSP1 [4]; [7]): 44.6 ± 0.75 µM
Kd (AlinCSP2 [5]; [15]): 46.4 ± 0.82 µM
Kd (AlinCSP3 [6]; [9]): 47.2 ± 1.18 µM
EAG response, male versus female antennae (A. lineolatus antennae): significantly higher EAG responses from female antennae than from male antennae

CCCCCCCCCCCCCCCC(=O)O [hexadecanoic acid]
Ki (AlinCSP1 [4]): 118 µM
Kd (AlinCSP1 [4]; [13]): > 50 µM
Ki (AlinCSP2 [5]): 137 µM
Kd (AlinCSP2 [5]; [8]): > 50 µM
Kd (AlinCSP3 [6]; [14]): > 50 µM
IC50 (AlinCSP1-3; displacement of 1-NPN, all three CSPs): > 50 µM
EAG response in words (A. lineolatus antennae): did not elicit notably EAG responses

C/C1=C\CC/C(C)=C/CC(C)(C)/C=C/C1 [α-Humulene]
Kd (AlinCSP1 [4]; [7]): 9.96 ± 0.89 µM
binding to AlinCSP2 in words (AlinCSP2 [5]): failed to bind with AlinCSP2
Kd (AlinCSP2 [5]; [8]): > 50 µM
Kd (AlinCSP3 [6]; [9]): 8.94 ± 2.97 µM
EAG response in words (A. lineolatus antennae): no notable EAG response

C=C1CC/C=C(\C)CC[C@@H]2[C@@H]1CC2(C)C [β-Caryophyllene]
Kd (AlinCSP1 [4]; [10]): 9.22 ± 1.08 µM
binding to AlinCSP2 in words (AlinCSP2 [5]): failed to bind with AlinCSP2
Kd (AlinCSP2 [5]; KD (µM) AlinCSP2, given as u.d., u.d. = KD not calculated because IC50>50 µM): > 50 µM
Kd (AlinCSP3 [6]; [12]): 12.3 ± 2.42 µM
EAG response in words (A. lineolatus antennae): no notable EAG response

C=C1CCC2CC1C2(C)C (stereo not drawn) [β-Pinene]
Kd (AlinCSP1 [4]; [10]): 7.07 ± 1.41 µM
Kd (AlinCSP2 [5]; [11]): 11.1 ± 1.91 µM
Kd (AlinCSP3 [6]; [12]): 12.4 ± 2.09 µM
EAG response in words (A. lineolatus antennae): failed to elicit high EAG response

Reference: PMC3416781, “Functional Characterizations of Chemosensory Proteins of the Alfalfa Plant Bug Adelphocoris lineolatus Indicate Their Involvement in Host Recognition” (PLoS ONE, 2012)
